Data published in publication PMC8979220 (RSC Advances, 2022).
Converted amounts (≈) assume the structure as drawn.

Target: acetylcholinesterase (acetyl cholinesterase)
Assay: in vitro AChE inhibition assay
Assay type: biochemical, Electrophorus electricus

Row | Compound | IC50 (μg ml^-1) ± SEM [µg/mL]
1 | O=C1C(=O)N(CCOc2ccccc2)c2ccccc21 [PI1, 1-(2-Phenoxyethyl)indoline-2,3-dione] | 0.52 ± 0.073 (≈ 1.95 µM)
2 | O=C1C(=O)N(CCOc2ccc(Cl)cc2)c2ccccc21 [PI2, 1-(2-(4-Chlorophenoxy)ethyl)indoline-2,3-dione] | 0.72 ± 0.012 (≈ 2.39 µM)
3 | O=C1C(=O)N(CCOc2ccc(F)cc2)c2ccccc21 [PI4, 1-(2-(4-Fluorophenoxy)ethyl)indoline-2,3-dione] | 0.68 ± 0.011 (≈ 2.38 µM)
4 | O=C1C(=O)N(CCOc2ccc(Cl)cc2)c2ccc(Cl)cc21 [PI6, 5-Chloro-1-(2-(4-chlorophenoxy)ethyl)indoline-2,3-dione] | 0.91 ± 0.015 (≈ 2.71 µM)
5 | O=C1C(=O)N(CCOc2ccccc2)c2ccc(Br)cc21 [PI9, 5-Bromo-1-(2-phenoxyethyl)indoline-2,3-dione] | 0.91 ± 0.083 (≈ 2.63 µM)
6 | O=C1C(=O)N(CCOc2ccc(Cl)cc2)c2ccc(Br)cc21 [PI10, 5-Bromo-1-(2-(4-chlorophenoxy)ethyl)indoline-2,3-dione] | 0.98 ± 0.055 (≈ 2.57 µM)
7 | O=C1C(=O)N(CCOc2ccc(Br)cc2)c2ccc(Br)cc21 [PI11, 5-Bromo-1-(2-(4-bromophenoxy)ethyl)indoline-2,3-dione] | 1.14 ± 0.013 (≈ 2.68 µM)
8 | O=C1C(=O)N(CCOc2ccc(F)cc2)c2ccc(Br)cc21 [PI12, 5-Bromo-1-(2-(4-fluorophenoxy)ethyl)indoline-2,3-dione] | 1.31 ± 0.083 (≈ 3.6 µM)
